Experimental data: US8080379B2, “Branched and multi-chain nucleic acid switches for sensing and screening” (Syracuse University, priority 2004, dated 2011)

What was measured:
[1] = H/O conformational equilibrium of the C3 switch by fluorescence; assay type: physicochemical; details: no protein
Excerpt: Such “molecular beacons” operate on the principle of FRET.
It is appropriate to examine the two extreme states in FIG. 11 (sequences M1 and M2 in Table 2). This allows evaluation of the position of the K1 equilibrium shift upon changing the sequence. Simply put, the luminescence of pure H and O are known, so their populations in a mixed system are just linear functions of the measured luminescence.

[2] = molecular target: T1, NCp7 (Human immunodeficiency virus type 1 group M subtype B, UniProt P12493); details: read-out: Kd′, single binding constant fit of FRET titration; Nt≅10 nM; emission at 517 nm
Description: FRET-monitored titration of the C3 (SEQ ID NO: 7) (Nt≅10 nM). [NCp7] increases left to right, expressed as the ratio Pt/Nt. The emission at 517 nm is reported after subtracting that of the RNase treated sample. […] Uncertainty in Nt limits the precision of this determination.
A fluorophore is placed at the 5′-end of the chain (*), and a quencher at the location marked Q. The distance between fluorophore and quencher is much larger in H than in O, so H has much stronger fluorescence.

[3] = molecular target: NC (Human immunodeficiency virus type 1 group M subtype B, UniProt P12493); details: cited from earlier work
[4] = molecular target: T1, NCp7; details: 10 nM concentration of the switch

C3: unimolecular bistable RNA/DNA switch, SEQ ID NO: 7, with FAM fluorophore and Dabsyl quencher (GCTATCCACCGATAGCTCCAACACGCUAGCGGUGGCUAGC; RNA/DNA chimera, FAM fluorophore and Dabsyl quencher, positions not given here)
K1 = [O]/[H] [1]: 0.08
Kd [2]: 500 nM

c(F-C-dW-R-C-K)
competition with NC for in vitro recognition of its RNA, DNA and protein targets [3]: competes with NC

B1: M3: tethered duplex of all-DNA chain SEQ ID NO: 3 and DNA/RNA chimeric chain SEQ ID NO: 6 (nucleic acid)
chain 1: GCTATCCACCGATAGCTCACAGCACGACTCAGATGG
chain 2: CCATCTGAGTCGTGCACGCUAGCGGUGGCUAGC
modifications: chain 1: DNA, backbone not given here; chain 2: chemistry not given here; strands tethered, second strand DNA/RNA chimera
time of equilibration with NCp7 [4]: within a minute
